Laboratory results published in patent US20130267474A1, “NOVEL PHYTOCHEMICALS FROM EXTRACTS OF MAPLE SYRUPS AND MAPLE TREES AND USES THEREOF” (UNIVERSITY OF RHODE ISLAND, priority 2010, published 2013).
pIC50: −log10 of the molar value. Where two headings read alike, the source gives them in different places. Each block holds one molecule with its values, some of them ahead of it.

Key:
[1] = test system: CCD-18Co (normal human colon fibroblasts); assay: MTS cytotoxicity / antiproliferative assay; assay type: cell-based; conditions: Homo sapiens, CCD-18Co
Procedure: (§1) Cell lines included three human colon cancer cells: HT-29 (human colon adenocarcinoma), HCT116 (human colon carcinoma) and Caco-2 (human epithelial colorectal adenocarcinoma). In addition, normal human colon cells are included: CCD-^18Co (human colon fibroblasts). All cell lines are obtained from the American Type Culture Collection (ATCC, Rockville, Md., USA) and maintained at the University of Rhode Island.
(§2) The assay is carried out to measure the IC50 values for samples. […] Test samples and a positive control, etoposide 4 mg/mL (Sigma), are solubilized in DMSO by sonication. […] Control wells are also included on all plates. […] Each point on the curve is […]. Data (see tables 6 to 9) are expressed as mean±SE for three replications on each cell line.

[2] = test system: Caco-2 (human epithelial colorectal adenocarcinoma); assay: MTS cytotoxicity / antiproliferative assay; assay type: cell-based; conditions: Homo sapiens
Procedure: as §1, §2

[3] = test system: HCT-116 (human colon carcinoma); assay: MTS cytotoxicity / antiproliferative assay; assay type: cell-based; conditions: Homo sapiens
Procedure: as §1, §2

[4] = test system: HT-29 (human colon adenocarcinoma); assay: MTS cytotoxicity / antiproliferative assay; assay type: cell-based; conditions: Homo sapiens
Procedure: as §1, §2

[5] = test system: colon cancer (HCT-116, Caco-2 and HT-29) cell lines; assay: MTS antiproliferative assay, statements pooled over the colon cancer cell lines
CCD-18Co cells = assay: Flow cytometry analysis of cell cycle; assay type: cell-based, human; conditions: 48 and 72 h
Procedure: (§3) (2×10^5) are collected after the corresponding experimental periods, fixed in ice-cold ethanol:PBS (70:30, v/v) for 30 min at 4° C., further resuspended in PBS with 100 μg ml^−1 RNAse and 40 μg ml^−1 propidium iodide, and then incubated at 37° C. for 30 min. The DNA content (10,000 cells) is analyzed using a FACS Calibur instrument equipped with FACStation running FACS Calibur software (BD Biosciences, San Diego, Calif., USA). The analyses of cell cycle distribution are performed in triplicate for each treatment (tested at 50 μg/mL concentrations). The coefficient of variation, according to the ModFit LT Version 2 acquisition software package (Verity Software House, Topsham, Me., USA), is always less than 5%.
as §3, with “Cells (2×10^5)” for “(2×10^5)”, “μg/mL” for “μg ml^−1”, “and” for “and then”, “min.” for “min. The”, “analysed” for “analyzed”, “treatment.” for “treatment (tested at 50 μg/mL concentrations).”

[6] = 72 h, Table 6 maple compounds, 72 h, unit inferred, read-out: CCD-18Co 72 h(IC50)
[7] = Caco-2, 48 h, read-out: Caco-2 48 h(IC50), Table 6 maple compounds, 48 h, unit inferred
[8] = Caco-2, 72 h, Table 6 maple compounds, 72 h, unit inferred, read-out: Caco-2 72 h(IC50)
[9] = HCT-116, 48 h, read-out: HCT-116 48 h(IC50), Table 6 maple compounds, 48 h, unit inferred
[10] = HCT-116, 72 h, Table 6 maple compounds, 72 h, unit inferred, read-out: HCT-116 72 h(IC50)
[11] = HT-29, 48 h, read-out: HT-29 48 h(IC50), Table 6 maple compounds, 48 h, unit inferred
[12] = HT-29, 72 h, Table 6 maple compounds, 72 h, unit inferred, read-out: HT-29 72 h(IC50)

IC50 ([5]; Homo sapiens, read-out: IC50 range, MTS assay, ginnalins, colon cell lines): 16 to 24 µg/mL
SMILES: O=C(OC[C@H]1OC[C@H](OC(=O)c2cc(O)c(O)c(O)c2)[C@@H](O)[C@@H]1O)c1cc(O)c(O)c(O)c1 [compound 70, 2,6-di-O-galloyl-1,5-anhydro-D-glucitol]
pIC50 [1, 6]: 4.04
pIC50 [2, 7]: 4.21
pIC50 [2, 8]: 4.33
pIC50 [3, 9]: 4.26
pIC50 [3, 10]: 4.36
pIC50 [4, 11]: 4.11
pIC50 [4, 12]: 4.29

pIC50 ([5]; Homo sapiens, read-out: IC50 (HT29, HCT116 and Caco-2), positive control, footnote of Table 16): 4.70 to 5.00
pIC50 ([5]; Homo sapiens, read-out: IC50 of positive control, MTS, HT-29, HCT116 and Caco-2): 4.60 to 4.82
pIC50 ([5]; read-out: IC50 of positive control, MTS, HT-29, HCT116 and Caco-2): 4.70 to 5.00
SMILES: COc1cc([C@@H]2c3cc4c(cc3[C@@H](O[C@@H]3O[C@@H]5CO[C@@H](C)O[C@H]5[C@H](O)[C@H]3O)[C@H]3COC(=O)[C@H]23)OCO4)cc(OC)c1O [Etoposide, reference compound]
pIC50 ([1]; 48 h, read-out: CCD-18Co 48 h (IC50), 48 h): 4.31
pIC50 ([1]; 48 h, read-out: CCD-18Co 48 h(IC50), Table 6 maple compounds, 48 h, unit inferred): 4.35
pIC50 [1, 6]: 4.37
pIC50 ([1]; 72 h, read-out: CCD-18Co 72 h (IC50)): 4.36
pIC50 ([1]; CCD-18Co cells, read-out: IC50 of positive control, MTS): 4.35 to 4.40
pIC50 ([1]; positive control, footnote of Table 16, read-out: IC50 for the CCD-18Co cells): 4.40 to 4.52
pIC50 ([2]; Caco-2, 48 h, read-out: Caco-2 48 h (IC50), 48 h): 4.72
pIC50 [2, 7]: 4.84
pIC50 ([2]; Caco-2, 72 h, 72 h, read-out: Caco-2 72 h (IC50)): 4.79
pIC50 [2, 8]: 4.91
pIC50 ([2]; Caco-2, 72 h, Table 7 maple extracts, 72 h, unit inferred, read-out: Caco-2 72 h(IC50)): 4.79
pIC50 ([3]; HCT-116, 48 h, read-out: HCT-116 48 h (IC50), 48 h): 4.57
pIC50 [3, 9]: 4.55
pIC50 ([3]; HCT-116, 72 h, 72 h, read-out: HCT-116 72 h (IC50)): 4.84
pIC50 [3, 10]: 4.66
pIC50 ([3]; HCT-116, 72 h, Table 7 maple extracts, 72 h, unit inferred, read-out: HCT-116 72 h(IC50)): 4.84
pIC50 ([4]; HT-29, 48 h, read-out: HT-29 48 h (IC50), 48 h): 4.87
pIC50 [4, 11]: 4.67
pIC50 ([4]; HT-29, 48 h, read-out: HT-29 48 h(IC50), Table 7 maple extracts, 48 h, unit inferred): 4.87
pIC50 ([4]; HT-29, 72 h, 72 h, read-out: HT-29 72 h (IC50)): 5.14
pIC50 [4, 12]: 4.89
pIC50 ([4]; HT-29, 72 h, Table 7 maple extracts, 72 h, unit inferred, read-out: HT-29 72 h(IC50)): 5.14
changes in cell cycle compared with control cells (CCD-18Co cells): slight but significant changes in the S phase
